For 20 compounds, IC50 and Emax results are on record in US20250282760A1 (Merck Sharp & Dohme LLC, priority 2022, published 2025).

Molecules are shown by their SMILES.

In this assay the target is T1, human OX2R (Homo sapiens, UniProt O43614).
T1 construct: expressed in transfected cells; host or cells: Chinese hamster ovary (CHO) cells, kept under G418 selection
T1 sequence (O43614 1-444): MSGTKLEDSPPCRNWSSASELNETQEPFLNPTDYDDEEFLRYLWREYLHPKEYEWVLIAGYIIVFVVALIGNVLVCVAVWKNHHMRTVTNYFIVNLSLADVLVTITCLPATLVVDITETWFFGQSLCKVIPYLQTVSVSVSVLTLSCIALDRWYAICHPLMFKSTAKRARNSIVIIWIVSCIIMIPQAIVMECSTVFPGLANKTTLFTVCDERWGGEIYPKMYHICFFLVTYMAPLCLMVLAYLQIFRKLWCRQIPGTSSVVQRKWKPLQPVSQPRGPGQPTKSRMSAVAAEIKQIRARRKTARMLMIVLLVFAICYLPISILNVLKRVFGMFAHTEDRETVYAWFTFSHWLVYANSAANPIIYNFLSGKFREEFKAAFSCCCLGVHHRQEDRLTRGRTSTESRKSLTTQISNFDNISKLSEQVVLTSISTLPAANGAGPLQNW
The experiment in a line: IPOne (IP-1 accumulation) assay of orexin receptor agonist activity in CHO cells expressing human OX2R. Conditions: for IC50: CHO cells expressing human OX2R, IP-One assay, 2 hours incubation, four parameter logistic fit, read-out: hOX2R_IP IC50; for Emax: CHO, percent activity at maximum tested concentration, relative to reference compound at 1 uM (100% activity) for human OX2R. In kind it is cell-based. From the text: The utility of the compounds in accordance with the present invention as orexin receptor OX1R and/or OX2R agonists may be readily determined without undue experimentation by methodology well known in the art. Both the OX1R and/or OX2R G-coupled protein receptors (GPCRs) couple through the Gαq signaling pathway, which ultimately promotes calcium mobilization via inositol triphosphate (IP3) production. […] The utility of the compounds in accordance with the present invention as orexin receptor OX1R and/or OX2R agonists may be determined utilizing this assay.
In a typical experiment, the OX1 and OX2 receptor agonist activity is determined in accordance with the following general experimental method. Chinese hamster ovary (CHO) cells expressing human OX1R and/or the human OX2R were grown in Iscove's modified DMEM containing glutaMAX™, 1% G418, 100 U/mL penicillin, 100 μg/mL streptomycin and 10% heat-inactivated qualified fetal bovine serum (FBS). […] During this incubation, IP-one detection reagents were prepared (38:1:1 lysis buffer:D2:AB-cryptate reagents).
For each compound, data were fit to a four parameter logistic fit (ActivityBase software) and the EC50 was reported as the inflection point of the resulting curve. Percent effect for each test compound was determined as the percentage of sample raw value/mean max effect, where the mean max effect was derived from the mean raw value of 32 control wells per assay plate (using Orexin A (cat #003-30) at 1 μM for human OX1R and a reference compound at 1 uM with 100% activity previously established by comparison to Orexin A for human OX2R). The intrinsic orexin receptor agonist activity of a compound which may be used in the present invention may be determined by these assays.

For orientation: IC50 means the concentration that inhibits the measured activity by half. What is called Emax is the size of the effect at its maximum, as opposed to the concentration needed. For the compound `N#Cc1ccc(S(=O)(=O)N2CCN(C(=O)c3cccs3)C(C(=O)NCc3ccc4ccccc4c3)C2)cc1` (stereo not shown) [Example 89-5, 4-[(4-cyanophenyl)sulfonyl]-N-[(naphthalen-2-yl)methyl]-1-(thiophene-2-carbonyl)piperazine-2-carboxamide], the IC50 was 100000 nM and the Emax was 23.1%.

`Cc1cc(-c2ccco2)ccc1CNC(=O)[C@H]1CN(S(=O)(=O)c2ccccc2)C[C@@H](C)N1C(=O)C(C)C` (relative stereo) [Example 29, cis-N-(4-(furan-2-yl)-2-methylbenzyl)-1-isobutyryl-6-methyl-4-(phenylsulfonyl)piperazine-2-carboxamide]: the IC50 amounted to 13.1 nM and the Emax was found to be 99.6%.

Turning to `CC(C)C(=O)N1[C@H](C)CN(S(=O)(=O)c2ccccc2)C[C@@H]1C(=O)NCc1cc(F)c(-c2ccco2)c(F)c1` (relative stereo) [Example 47-3, cis-N-(3,5-difluoro-4-(furan-2-yl)benzyl)-1-isobutyryl-6-methyl-4-(phenylsulfonyl)piperazine-2-carboxamide], the IC50 stood at 29.5 nM and the Emax amounted to 99.7%.

As for `O=C(NCc1ccc2ccccc2c1)C1CN(S(=O)(=O)c2ccccc2Cl)CCN1C(=O)c1cccs1` (stereo not shown) [Example 89-4, 4-[(2-chlorophenyl)sulfonyl]-N-[(naphthalen-2-yl)methyl]-1-(thiophene-2-carbonyl)piperazine-2-carboxamide], the IC50 worked out at 5280 nM and the Emax is 75.5%.

As for `CCOc1ccc(CNC(=O)[C@H]2CN(S(=O)(=O)c3ccccc3)C[C@@H](C)N2C(=O)C(C)C)cc1` (relative stereo) [Example 19-11, cis-N-(4-ethoxybenzyl)-1-isobutyryl-6-methyl-4-(phenylsulfonyl)piperazine-2-carboxamide], the IC50 worked out at 264 nM and the Emax is 93.1%.

Turning to `CC(C)C(=O)N1[C@@H](C)CN(S(=O)(=O)c2ccccc2)C[C@H]1C(=O)NCc1ccc(OC(C)(F)F)cc1` (single isomer, unassigned) [Example 19-4-2], the IC50 came out at 9100 nM and the Emax was determined as 95.6%.

For the compound `O=C(NCc1ccc2ccccc2c1)C1CN(S(=O)(=O)c2ccccc2)CCN1C(=O)c1cccs1` (stereo not shown) [Example 6, N-(naphthalen-2-ylmethyl)-4-(phenylsulfonyl)-1-(thiophene-2-carbonyl)piperazine-2-carboxamide], the IC50 turned out to be 2260 nM and the Emax is 94.3%.

For `Cc1ccccc1S(=O)(=O)N1CCN(C(=O)c2cccs2)C(C(=O)NCc2ccc3ccccc3c2)C1` (stereo not shown) [Example 89-3, 4-[(2-methylphenyl)sulfonyl]-N-[(naphthalen-2-yl)methyl]-1-(thiophene-2-carbonyl)piperazine-2-carboxamide], the IC50 amounted to 6570 nM and the Emax came out at 82.7%.

On to `CC(C)C(=O)N1[C@H](C)CN(S(=O)(=O)c2ccccc2)C[C@@H]1C(=O)NCc1ccc(-c2ncco2)cc1` (relative stereo) [Example 19-8, cis-1-isobutyryl-6-methyl-N-(4-(oxazol-2-yl)benzyl)-4-(phenylsulfonyl)piperazine-2-carboxamide], for which the IC50 was 146 nM and the Emax came to 99.5%.

For `CC(C)C(=O)N1[C@H](C)CN(S(=O)(=O)c2ccccc2)C[C@@H]1C(=O)NCc1ccc(-c2nccs2)cc1` (relative stereo) [Example 19-6, cis-1-isobutyryl-6-methyl-4-(phenylsulfonyl)-N-(4-(thiazol-2-yl)benzyl)piperazine-2-carboxamide], the IC50 was 81.3 nM and the Emax amounted to 98.7%.

Regarding `COc1cc(CNC(=O)[C@H]2CN(S(=O)(=O)c3ccccc3)C[C@@H](C)N2C(=O)C(C)C)ccc1-c1ccco1` (relative stereo) [Example 47-1, cis-N-(4-(furan-2-yl)-3-methoxybenzyl)-1-isobutyryl-6-methyl-4-(phenylsulfonyl)piperazine-2-carboxamide], the IC50 worked out at 19200 nM and the Emax came out at 38.4%.

As for `CC(C)C(=O)N1[C@H](C)CN(S(=O)(=O)c2ccccc2)C[C@@H]1C(=O)NCc1ncc(-c2ccco2)cn1` (single isomer, unassigned) [Example 39], the IC50 was determined as 6280 nM and the Emax amounted to 97.8%.

Regarding `O=C(NCc1ccc2ccccc2c1)C1CN(S(=O)(=O)c2ccccc2F)CCN1C(=O)c1cccs1` (stereo not shown) [Example 89-11, 4-[(2-fluorophenyl)sulfonyl]-N-[(naphthalen-2-yl)methyl]-1-(thiophene-2-carbonyl)piperazine-2-carboxamide], the IC50 amounted to 5030 nM and the Emax is 94.5%.

For `CC[C@@H]1CN(S(=O)(=O)c2ccccc2)C[C@H](C(=O)NCc2ccc(-c3ccco3)cc2)N1C(=O)C(C)C` (relative stereo) [Example 71, cis-6-ethyl-N-(4-(furan-2-yl)benzyl)-1-isobutyryl-4-(phenylsulfonyl)piperazine-2-carboxamide], the IC50 worked out at 244 nM and the Emax was determined as 100%.

Consider `CCC(C)C(=O)N1CCN(S(=O)(=O)c2ccccc2)CC1C(=O)NCc1ccc2ccccc2c1` (stereo not shown) [Example 10-1, 1-(2-methylbutanoyl)-N-(naphthalen-2-ylmethyl)-4-(phenylsulfonyl)piperazine-2-carboxamide], for which the IC50 came to 4310 nM and the maximal effect (Emax) came out at 101%.

Take `C[C@@H]1CN(S(=O)(=O)c2ccccc2)C[C@H](C(=O)NCc2ccc3ccccc3c2)N1C(=O)c1cccs1` (relative stereo) [Example 57, cis-6-methyl-N-(naphthalen-2-ylmethyl)-4-(phenylsulfonyl)-1-(thiophene-2-carbonyl)piperazine-2-carboxamide]: the IC50 worked out at 2540 nM and the Emax turned out to be 94.3%.

In the case of `Cc1cc(-c2ccco2)cnc1CNC(=O)[C@H]1CN(S(=O)(=O)c2ccccc2)C[C@@H](C)N1C(=O)C(C)C` (relative stereo) [Example 55, cis-N-((5-(furan-2-yl)-3-methylpyridin-2-yl)methyl)-1-isobutyryl-6-methyl-4-(phenylsulfonyl)piperazine-2-carboxamide], the IC50 is 2980 nM and the Emax turned out to be 93.5%.

Turning to `Cc1ccccc1C(=O)N1CCN(S(=O)(=O)c2ccccc2)CC1C(=O)NCc1ccc2ccccc2c1` (stereo not shown) [Example 10-11, 1-(2-methylbenzoyl)-N-(naphthalen-2-ylmethyl)-4-(phenylsulfonyl)piperazine-2-carboxamide], the IC50 was 100000 nM and the Emax came to 19.4%.

Regarding `CC(C)C(=O)N1[C@H](C)CN(S(=O)(=O)c2ccccc2)C[C@@H]1C(=O)NCc1ccc(-c2ccccc2F)cc1` (relative stereo) [Example 21, cis-N-((2′-fluoro-[1,1′-biphenyl]-4-yl)methyl)-1-isobutyryl-6-methyl-4-(phenylsulfonyl)piperazine-2-carboxamide], the 50% inhibitory concentration (IC50) came to 92.2 nM and the Emax stood at 90.7%.

In the case of `CCC(F)(F)Oc1ccc(CNC(=O)[C@H]2CN(S(=O)(=O)c3ccccc3)C[C@@H](C)N2C(=O)C(C)C)cc1` (single isomer, unassigned) [Example 61, cis-N-(4-(1,1-difluoropropoxy)benzyl)-1-isobutyryl-6-methyl-4-(phenylsulfonyl)piperazine-2-carboxamide], the IC50 came to 100 nM and the Emax is 93.2%.
